Measurements as given in patent US5340833A, “Urokinase inhibitors” (Eisai Co., Ltd., priority 1992, dated 1994).
Values joined by “and” are separate entries in the source; they are usually repeats but may differ in a detail not shown here. Identical values can stand only once. Counter-ions that a name gives are not always drawn. Like-named read-outs stand apart in the source and are kept apart here.

Tests used:
human plasmin = molecular target: T1, human plasmin (Homo sapiens, UniProt P00747); test: Plasmin Assay; type: biochemical; conditions: for PLM/uPA ratio: ratio with respect to urokinase indirect plasminogen-linked IC50, larger = greater specificity for urokinase; for inhibition at 1000 µM: read-out: PLASMIN activity observed relative to inhibitor-free controls
T1 construct: plasmin, the potent general protease produced by cleavage of plasminogen by either urokinase or tPA; purchased American Diagnostica
Procedure: (v) A chromogenic pNA assay for plasmin, the potent general protease produced by cleavage of plasminogen by either urokinase or tPA. Although urokinase initiates cellular invasiveness by generating plasmin, the additional importance of plasmin in tPA-mediated fibrinolysis dictates that plasmin itself should be free from inhibition by urokinase inhibitors designed as anti-invasiveness agents. […] All other assay conditions, as well as methods of color quantitation, were carried out as described above for the urokinase direct assay.

human two-chain tPA = molecular target: T2, human two-chain tPA (Homo sapiens, UniProt P00750); test: tPA Indirect (Plasminogen-Linked) Assay (tPA Direct Assay result where lower); type: biochemical; conditions: for tPA/UPA ratio: ratio with respect to urokinase indirect plasminogen-linked IC50, larger = greater specificity for urokinase
T2 construct: human two-chain tPA was substituted for urokinase; purchased American Diagnostica
Description: (iv) Both direct and plasminogen-linked pNA assays for tPA, the other mammalian plasminogen activator and the key initiator of blood clot dissolution or fibrinolysis. Since urokinase and tPA share an absolute specificity for the same peptide bond in plasminogen, urokinase inhibitors designed to block cellular invasiveness must be highly specific for urokinase over tPA in order to avoid serious thrombotic side effects secondary to undesired blockage of normal fibrinolysis. […] Spectrozyme tPA®, American Diagnostica) was substituted for urokinase substrate.

[1] = molecular target: T3, human high molecular weight urokinase (Homo sapiens, UniProt P00749); test: Urokinase Direct Assay; type: biochemical
T3 construct: human high molecular weight urokinase; purchased American Diagnostica, Greenwich, Conn
Procedure: (i) A direct chromogenic assay in which urokinase cleaves a synthetic tripeptide p-nitroanilide (pNA) urokinase substrate.
Incubations were carried out at 37° C. for approximately 2 hours or until adequate yellow color developed. Color was quantitated by measuring absorbance at 405 nm (A405) using a Titertek Multiskan MCC/340 MK II microtiter plate spectrophotometer.

urokinase [2] = molecular target: T4, urokinase (Homo sapiens, UniProt P00749); test: Urokinase Indirect (Plasminogen-Linked) Assay; type: biochemical
T4 construct: human high molecular weight urokinase; purchased American Diagnostica, Greenwich, Conn
Procedure: (ii) An indirect plasminogen-linked assay in which urokinase proteolytically activates plasminogen, forming plasmin which then cleaves a synthetic tripeptide pNA plasmin substrate.
Incubations were carried out at 22° C. for 45-60 minutes or until adequate color developed. Color qas quantitated as in the urokinase direct assay above. Parallel incubations were performed with and without plasminogen, and corrected absorbance values were obtained by subtracting values obtained without plasminogen from those obtained with plasminogen, eliminating any contribution of direct cleavage, if any, of plasmin substrate by urokinase.

urokinase [3] = conditions: FIG. 2
[4] = test system: HT1080 human fibrosarcoma cells; test: Cell-based [^3 H]Fibronectin Degradation Assay; conditions: plasminogen-dependent, FIG. 4
Procedure: Fifty microliter volumes of HT1080 cell suspensions (harvested without trypsinization) containing 1×10^6 cells/ml were then added, and the incubations continued for 18 hours at 37° C. in a humidified atmosphere containing 5% CO2. Radioactivity levels in 50 μl aliquots of the supernatants was then determined by liquid scintillation counting.

[5] = Table 3 column 4, simple number, unit inferred, read-out: uPA Indirect (plasminogen-linked) IC50
[6] = tPA Indirect Plasminogen-Linked Assay, in rare cases direct assay result if lower, read-out: tPA IC50

T2 sequence (P00750 311-562 limits assumed): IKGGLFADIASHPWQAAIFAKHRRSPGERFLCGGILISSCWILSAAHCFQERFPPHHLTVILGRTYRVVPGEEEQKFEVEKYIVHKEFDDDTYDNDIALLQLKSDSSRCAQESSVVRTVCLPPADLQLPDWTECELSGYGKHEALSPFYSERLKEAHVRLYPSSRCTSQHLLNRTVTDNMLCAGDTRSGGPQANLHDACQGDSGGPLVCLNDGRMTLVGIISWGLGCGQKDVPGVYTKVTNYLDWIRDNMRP
T2 sequence (P00750 36-310 limits assumed): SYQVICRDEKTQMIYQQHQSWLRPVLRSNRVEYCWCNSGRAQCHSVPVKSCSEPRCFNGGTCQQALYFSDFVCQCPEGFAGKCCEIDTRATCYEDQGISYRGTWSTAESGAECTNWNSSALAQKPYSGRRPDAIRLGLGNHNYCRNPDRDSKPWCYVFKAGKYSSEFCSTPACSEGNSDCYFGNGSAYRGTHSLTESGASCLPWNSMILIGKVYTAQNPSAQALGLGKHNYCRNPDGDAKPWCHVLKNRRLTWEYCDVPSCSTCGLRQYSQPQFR
T1 sequence (P00747 581-810 limits assumed): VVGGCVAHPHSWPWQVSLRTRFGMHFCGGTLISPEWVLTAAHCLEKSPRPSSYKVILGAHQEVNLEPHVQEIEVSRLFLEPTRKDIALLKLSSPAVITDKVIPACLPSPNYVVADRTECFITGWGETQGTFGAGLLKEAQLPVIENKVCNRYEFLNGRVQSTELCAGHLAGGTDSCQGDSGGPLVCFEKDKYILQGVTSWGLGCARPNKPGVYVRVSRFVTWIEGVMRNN
T1 sequence (P00747 97-580 limits assumed): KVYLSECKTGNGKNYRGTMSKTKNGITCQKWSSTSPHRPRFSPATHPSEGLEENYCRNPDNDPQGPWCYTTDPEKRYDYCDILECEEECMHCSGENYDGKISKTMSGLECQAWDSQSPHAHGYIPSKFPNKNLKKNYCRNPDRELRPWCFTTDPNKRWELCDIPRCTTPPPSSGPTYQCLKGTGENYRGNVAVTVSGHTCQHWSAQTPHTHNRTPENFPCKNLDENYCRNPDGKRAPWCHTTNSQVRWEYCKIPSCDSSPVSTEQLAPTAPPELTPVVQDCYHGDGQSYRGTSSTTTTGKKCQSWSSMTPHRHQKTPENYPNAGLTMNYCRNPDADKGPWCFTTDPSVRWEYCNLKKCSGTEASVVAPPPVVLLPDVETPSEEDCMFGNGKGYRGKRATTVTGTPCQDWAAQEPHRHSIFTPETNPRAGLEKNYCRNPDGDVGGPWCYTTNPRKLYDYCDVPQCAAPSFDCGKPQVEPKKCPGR

| IC50 [1] [µM] | IC50 (urokinase [2]; uPA Indirect (plasminogen-linked) IC50, Table 3, unit inferred) [µM] | SMILES | PLM/uPA ratio (human plasmin) | inhibition at 1000 µM (human plasmin) [%] | tPA/UPA ratio (human two-chain tPA) | inhibition at 1000 µM (human two-chain tPA; read-out: tPA activity observed relative to inhibitor-free controls) [%] | residual urokinase activity at 1000 µM ([1]; read-out: uPA Direct: percentage of residual urokinase activity relative to inhibitor-free controls) [%] | IC50 (urokinase [2]; [5]) | IC50 (human plasmin) [µM] | IC50 (human two-chain tPA) [µM] | mode of urokinase inhibition (urokinase [3]) | IC50 (human plasmin; read-out: PLASMIN IC50) [µM] | IC50 (human two-chain tPA; [6]) [µM] | inhibition of cellular degradation of [^3 H]fibronectin [4] |
| --- | --- | --- | --- | --- | --- | --- | --- | --- | --- | --- | --- | --- | --- | --- |
|  |  | Cl.N=C(N)c1cc2ccccc2s1 [Compound 1, Benzo[b]thiophene-2-carboxamidine hydrochloride] | > 200 | 78 | > 200 | 77 | 3.5 | 4.9 µM |  |  |  |  |  |  |
|  |  | N=C(N)c1cc2c(C=Cc3ccc4c(c3)OCO4)cccc2s1 [Compound 65, 4-[E/Z-2-(Benzo-1,3-dioxolan-5-yl)ethenyl]benzo[b]thiophene-2-carboxamidinehydrochloride] |  |  |  |  |  |  | 630 | 25 | competitive, reversible inhibition |  |  |  |
|  |  | CC(C)C=Cc1cccc2sc(C(=N)N)cc12 [Compound 22, 4-(E/Z-3-Methylbut-1-enyl)benzo[b]thiophene-2-carboxamidine hydrochloride] | 2218 |  | 391 |  |  | 0.11 µM |  |  |  | 244 | 43 | effective inhibitors |
| 4.4 | 0.67 | C=Cc1ccc2sc(C(=N)N)cc2c1SC.Cl [Compound 201, 4-(Methylthio)-5-ethenylbenzo[b]thiophene-2-carboxamidine hydrochloride] | 65 |  | 30 |  |  |  |  |  |  | 43 | 20 |  |
|  |  | CCCCCCc1cccc2sc(C(=N)N)cc12.Cl [Compound 13, 4-(Hexyl)benzo[b]thiophene-2-carboxamidine hydrochloride] | 464 |  | 214 |  |  | 0.42 µM |  |  |  | 195 | 90 |  |
|  |  | C=Cc1ccc2sc(C(=N)N)cc2c1.Cl [Compound 114, 5-(Ethenyl)benzo[b]thiophene-2-carboxamidine hydrochloride] | 180 |  | 23 |  |  | 1.6 µM |  |  |  | 288 | 37 |  |
|  |  | Cl.N=C(N)c1cc2c(/C=C/c3ccco3)cccc2s1 [Compound 67, 4-[E-2-(Furan-2-yl)ethenyl]benzo[b]thiophene-2-carboxamidine hydrochloride] | 1000 |  | 133 |  |  | 0.195 µM |  |  |  | 195 | 26 |  |
|  |  | C=CCc1cccc2sc(C(=N)N)cc12.Cl [Compound 19, 4-(Prop-2-enyl)benzo[b] thiophene-2-carboxamidine hydrochloride] | 1120 |  | 127 |  |  | 0.45 µM |  |  |  | 505 | 57 |  |
|  |  | CCc1cccc2sc(C(=N)N)cc12.Cl [Compound 7, 4-Ethylbenzo[b]thiophene-2-carboxamidine hydrochloride] | 610 |  | 263 |  |  | 0.7 µM |  |  |  | 427 | 184 |  |
|  |  | N=C(N)c1cc2c(/C=C/c3cccc4sc(C(=N)N)cc34)cccc2s1 [Compound 73, 4-[E-2-(2-Carboxamidinobenzothien-4-yl)ethenyl]benzo[b]thiophene-2-carboxamidine bis-hydrochloride] | 147 |  | 15.9 |  |  | 0.17 µM |  |  |  | 25 | 2.7 |  |
|  |  | N=C(N)c1cc2cc(C=CC3CC3)ccc2s1 [Compound 121, 5-(E/Z-2-Cyclopropylethenyl)benzo[b]thiophene-2-carboxamidine hydrochloride] | 1875 |  | 313 |  |  | 0.56 µM |  |  |  | 1050 | 175 |  |
|  |  | C#Cc1cccc2sc(C(=N)N)cc12.Cl [Compound 39, 4-Ethynylbenzo[b]thiophene-2-carboxamidine hydrochloride] | 661 |  | 436 |  |  | 0.66 µM |  |  |  | 704 | 288 |  |
|  |  | CCCCc1cccc2sc(C(=N)N)cc12.Cl [Compound 10, 4-Butylbenzo[b]thiophene-2-carboxamidine hydrochloride] | 907 |  | 352 |  |  | 0.42 µM |  |  |  | 381 | 148 |  |
|  |  | Cl.N=C(N)c1cc2c(-c3ccccc3)cccc2s1 [Compound 44, 4-Phenylbenzo[b]thiophene-2-carboxamidine hydrochloride] | 800 |  | 58 |  |  | 1.1 µM |  |  |  | 881 | 64 |  |
|  |  | Cl.N=C(N)c1cc2cc(-c3ccco3)ccc2s1 [Compound 126, 5-(Furan-2-yl)benzo[b]thiophene-2-carboxamidine hydrochloride] | 763 |  | 200 |  |  | 0.7 µM |  |  |  | 534 | 140 |  |
|  |  | Cl.N=C(N)c1cc2c(CO)cccc2s1 [Compound 56, 4-(Hydroxymethyl)benzo[b]thiophene-2-carboxamidine hydrochloride] | ≥ 1500 | 67 | 640 |  |  | 0.88 µM |  |  |  |  | 563 |  |
|  |  | CCCCC=Cc1cccc2sc(C(=N)N)cc12 [Compound 29, 4-(E/Z-Hex-1-enyl)benzo[b]thiophene-2-carboxamidine hydrochloride] | 718 |  | 250 |  |  | 0.34 µM |  |  |  | 244 | 85 |  |
|  |  | N=C(N)c1cc2c(C=Cc3ccc4c(c3)OCCO4)cccc2s1 [Compound 66, 4-[E/Z,2-(Benzo-1,4-dioxan-6-yl)ethenyl]benzo[b]thiophene-2-carboxamidine hydrochloride] | 4580 |  | 395 |  |  | 0.12 µM and 0.038 µM |  |  |  | 174 | 15 |  |
|  |  | Cl.N=C(N)c1cc2c(C#Cc3ccc4c(c3)OCO4)cccc2s1 [Compound 77, 4-[(Benzo-1,3-dioxolan-5-yl)ethynyl]benzo[b]thiophene-2-carboxamidine hydrochloride] | ≈ 4240 |  | 142 |  |  | 0.059 µM |  |  |  | ~250 | 8.4 |  |
